According to ChEMBL document CHEMBL1201862, “PubChem BioAssay data set” (2004):
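Compound exposure: 48 hours, 5 concentrations, 96-well plates. GI50 marks 50% less growth.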 Calls of active or inactive are those of the source. Rule as the data show it: active = GI50 up to about 1.1 µM and inactive = higher.

Legend:
Experiment in all cases: DTP human tumour cell line panel, 48 h
[1] = test system: DLD-1
[2] = test system: SF-295
[3] = test system: OVCAR-5
[4] = test system: HCC 2998
[5] = test system: DMS-273
[6] = test system: SF-268
[7] = test system: NCI-H460
[8] = test system: K562
[9] = test system: SN12C
[10] = test system: UO-31
[11] = test system: SK-MEL-28
[12] = test system: NCI-H23
[13] = test system: SNB-19
[14] = test system: DMS-114
[15] = test system: SK-MEL-5
[16] = test system: RPMI-8226
[17] = test system: OVCAR-4
[18] = test system: A549
[19] = test system: BT-549
[20] = test system: DU-145

Measured: GI50

C/C(CC(=O)Nc1ccc(NC(=O)C/C(C)=N\NC(N)=O)cc1)=N/NC(N)=O
inactive: [1] > 45.2 µM | [2] > 100 µM | [3] > 100 µM | [4] > 100 µM | [5] > 37.1 µM | [6] > 60 µM | [7] > 62.4 µM | [8] 52.7 µM | [9] > 100 µM | [10] > 85.1 µM | [11] > 44.4 µM | [12] 98.4 µM | [13] > 100 µM | [14] > 35.6 µM | [15] > 100 µM | [16] 24.8 µM | [17] 96.2 µM | [18] > 100 µM

CN(C)CCNC(=O)c1cccc2[nH]c(-c3ccccc3)nc12
inactive: [1] 16.3 µM | [2] 25.2 µM | [3] 15.7 µM | [4] 15.3 µM | [5] 14.5 µM | [6] 18.5 µM | [7] 15.4 µM | [8] 26.4 µM | [9] 16.7 µM | [10] 12.8 µM | [11] 18.3 µM | [12] 17.4 µM | [13] 32.5 µM | [14] 17.3 µM | [15] 15.1 µM | [16] 32.1 µM | [17] 28.4 µM | [18] 16.3 µM

CC1OC(n2cc(I)c(=O)[nH]c2=O)C=CC1=O (configuration not stated)
inactive: [1] 13.2 µM | [2] 18.5 µM | [3] 25 µM | [4] 17.5 µM | [5] 17.2 µM | [6] 14.1 µM | [7] 18.8 µM | [8] 3.92 µM | [9] 18.7 µM | [10] 16.9 µM | [11] 15.7 µM | [12] 17 µM | [13] 17.7 µM | [14] 17 µM | [15] 16 µM | [16] 13.9 µM | [17] 16.3 µM | [18] 26.7 µM

COc1ccc2c(c1)[n+]([O-])c(-c1ccccc1)c(N)[n+]2[O-]
inactive: [1] 45.6 µM | [2] 67.1 µM | [3] 94 µM | [4] 54 µM | [5] 34.4 µM | [6] 30.5 µM | [7] 35.6 µM | [8] 45.2 µM | [9] 51.8 µM | [10] 63.1 µM | [11] 25 µM | [12] 23.9 µM | [13] 42.5 µM | [14] 25.4 µM | [15] 18 µM | [16] 77.1 µM | [17] 47.3 µM | [18] 37.1 µM

Nc1ccc2ncc(Nc3ccc(Cl)c(Cl)c3)nc2c1
inactive: [1] 29.6 µM | [2] 20 µM | [3] 38.5 µM | [4] 17.6 µM | [5] 23.2 µM | [6] 39.7 µM | [7] 27.4 µM | [8] 18.1 µM | [9] 36.4 µM | [10] 19.7 µM | [11] 26.5 µM | [12] 18.7 µM | [13] 24.5 µM | [14] 13 µM | [15] 17.5 µM | [16] 24.5 µM | [17] 46 µM | [18] 26.3 µM

C[N+]1(C)C/C(=C\C=C\c2ccccc2)C(=O)/C(=C/C=C/c2ccccc2)C1
inactive: [1] 16.1 µM | [2] 23.8 µM | [3] 24.3 µM | [4] 8.55 µM | [5] 1.62 µM | [6] 4.97 µM | [7] 17.1 µM | [19] 1.92 µM | [8] 4.18 µM | [9] 7.69 µM | [10] 85.5 µM | [11] 3.85 µM | [20] 17.2 µM | [12] 9.71 µM | [13] 6.08 µM | [14] 2.72 µM | [15] 6.24 µM | [16] 2.07 µM | [17] 42.7 µM | [18] 39.8 µM

Fc1ccccc1C1CC(C(c2ccccc2)c2ccccc2)=Nc2ccccc2S1 (configuration not stated)
inactive: [1] 5.41 µM | [2] 9.48 µM | [3] 12.1 µM | [4] 5.35 µM | [5] 4.76 µM | [6] 11.4 µM | [7] 4.89 µM | [8] 2.73 µM | [9] 10.2 µM | [10] 14 µM | [11] 12.6 µM | [12] 5.89 µM | [13] 14.4 µM | [14] 6.85 µM | [15] 11.2 µM | [16] 3.6 µM | [17] 10.9 µM | [18] 11.4 µM

c1ccc(-c2sc(-c3ccccc3)c3c2C(c2ccccc2)c2c(-c4ccccc4)sc(-c4ccccc4)c2C3c2ccccc2)cc1 (configuration not stated)
inactive: [1] > 100 µM | [2] > 100 µM | [3] > 100 µM | [4] > 100 µM | [5] > 100 µM | [6] > 100 µM | [7] > 100 µM | [8] > 100 µM | [9] > 100 µM | [10] > 100 µM | [11] > 100 µM | [12] > 100 µM | [13] > 100 µM | [14] > 100 µM | [15] > 100 µM | [16] > 100 µM | [17] > 100 µM | [18] > 100 µM

NC(=O)NNC/C(Cl)=C(\Cl)C(=O)O
inactive: [1] > 100 µM | [2] > 100 µM | [3] > 100 µM | [4] > 100 µM | [5] > 100 µM | [6] > 100 µM | [7] > 100 µM | [8] > 100 µM | [9] > 100 µM | [10] > 100 µM | [11] > 100 µM | [12] > 100 µM | [13] > 100 µM | [14] > 100 µM | [15] > 100 µM | [16] > 100 µM | [17] > 100 µM | [18] > 100 µM

CC1(c2ccccc2)CC(c2ccccc2)=NO1 (configuration not stated)
inactive: [1] > 100 µM | [2] > 100 µM | [3] > 100 µM | [4] > 100 µM | [5] > 100 µM | [6] > 100 µM | [7] > 100 µM | [8] > 100 µM | [9] > 100 µM | [10] > 100 µM | [11] > 100 µM | [12] > 100 µM | [13] > 100 µM | [14] > 100 µM | [15] > 100 µM | [16] > 100 µM | [17] > 100 µM | [18] > 100 µM

c1ccc(CCCC2Sc3cccc4cccc(c34)S2)cc1
inactive: [1] > 100 µM | [2] > 100 µM | [3] > 100 µM | [4] 88.7 µM | [5] > 100 µM | [6] > 100 µM | [7] > 100 µM | [8] > 100 µM | [9] > 100 µM | [10] > 100 µM | [11] > 100 µM | [12] > 100 µM | [13] > 100 µM | [14] > 100 µM | [15] 78.3 µM | [16] 52.7 µM | [17] > 100 µM | [18] > 100 µM

Cc1cc(=O)n2c3c(c4c(cc13)c(CO)cc(=O)n4C)OC2
inactive: [1] 15.7 µM | [2] 30.3 µM | [3] 16.5 µM | [4] 14.8 µM | [5] 8.85 µM | [6] 8.18 µM | [7] 18 µM | [8] 5.56 µM | [9] 12.9 µM | [10] 7.69 µM | [11] 18.8 µM | [12] 13.5 µM | [13] 10.5 µM | [14] 14.1 µM | [15] 20.1 µM | [16] 32.1 µM | [17] 17.5 µM | [18] 36.1 µM

O=C(O)CCSC(=O)Nc1ccccc1Cl
inactive: [1] > 100 µM | [2] > 100 µM | [3] > 100 µM | [4] > 100 µM | [5] > 100 µM | [6] > 100 µM | [7] > 100 µM | [8] > 100 µM | [9] > 100 µM | [10] > 100 µM | [11] > 100 µM | [12] > 100 µM | [13] > 100 µM | [14] > 100 µM | [15] > 100 µM | [16] > 100 µM | [17] > 100 µM | [18] > 100 µM

CCCCCCCCCCCCNC(=S)OCCCC
inactive: [1] > 100 µM | [2] > 100 µM | [3] 31.8 µM | [4] > 100 µM | [5] > 100 µM | [6] > 100 µM | [7] > 100 µM | [8] 65.3 µM | [9] 59.2 µM | [10] > 100 µM | [11] 76.6 µM | [12] > 100 µM | [13] > 100 µM | [14] 34.8 µM | [15] 81.3 µM | [16] 15.7 µM | [17] > 100 µM | [18] > 100 µM

N#C/C(=C\c1ccc(O)c(O)c1)C(N)=S [TYRPHOSTIN 47]
inactive: [1] 64.6 µM | [2] 82.8 µM | [3] > 100 µM | [4] > 73.5 µM | [5] > 79.1 µM | [6] 66.1 µM | [7] 45.9 µM | [8] 22.5 µM | [9] > 100 µM | [10] 98.9 µM | [11] > 84.7 µM | [12] 64 µM | [13] > 70.3 µM | [14] 18.2 µM | [15] 71.1 µM | [16] > 49.2 µM | [17] > 100 µM | [18] > 100 µM
